Measured values taken from paper PMC12040169 (PLOS Biology, 2025).

Test: in vitro
Conditions: human, hela cells

SMILES | viability at 28.5 h, 10 µM (% viability) | viability at 28.5 h, 10 µM
COC(=O)c1c(NC(=S)NCCn2cc(Br)cn2)sc2c1CCC(C)C2 (stereo not drawn) [CBK266886] | 89.8% | –
N#CCCN(CCC#N)C(=O)CN1C(=O)c2ccccc2C1=O [CBK267100] | 89% | –
Cc1ccc(-n2c3c(cc(C(=O)NCCCN4CCOCC4)c2=O)C(=O)CCC3)cc1 [CBK266094] | 115% | –
O=C(O)C(Cc1c[nH]cn1)N1C(=O)C2CC=C(Cl)CC2C1=O (stereo not drawn) [CBK286871] | 92.4% | –
CC1CCc2n[nH]c(C(=O)NC3CN4CCC3CC4)c2C1 (stereo not drawn) [CBK283193] | 108% | –
COc1ccc(CCC(=O)N2CCCC(c3nccnc3-c3cccc(C)c3)C2)cc1 (stereo not drawn) [CBK286510] | 99.6% | –
CCCCCC(=O)Nc1c(C)cc(Br)cc1C [CBK058159] | 116% | –
CC(=O)NCc1ccc(-c2cc(CN(C)C)n(C)n2)cc1 [CBK281667] | 99.1% | –
Cc1ccc(Cl)cc1NC(=O)c1cc([N+](=O)[O-])ccc1NCCN1C(=O)c2ccccc2C1=O [CBK268501] | 99.5% | –
Clc1ccc(Nc2nnns2)cc1Cl [CBK005211] | 100% | –
CCNC(=O)Nc1cc2ccccc2c(-c2cccnc2)n1 [CBK073787] | 82.3% | –
COc1ccc(/C=N/NC(=O)Cc2cccn2C)cc1[N+](=O)[O-] [CBK262789] | 99.1% | –
Fc1ccc(CN2CCC(c3nnc4n3CCCCC4)CC2)cc1F [CBK283356] | 86.3% | –
Cc1ccc(N(CC(=O)Nc2ccc(C)cc2C)S(=O)(=O)N2CCCC2)cc1 [CBK265998] | 110% | –
CSCCN1CCN(c2nccnc2OCCN2C(=O)CCC2=O)CC1 [CBK084301] | 105% | –
COc1ccc(C(C)c2cc3c(cc2O)OCO3)c(F)c1 (stereo not drawn) [CBK200101] | 98.1% | –
CN(C)CCn1c2c(c3ccccc31)CCCn1cnnc1-2 [CBK267712C] | 97.2% | –
Nc1nc(-c2ccccc2)c(C(=O)Nc2ccccc2)s1 [CBK058068] | 95.2% | –
CC(C)(C)c1csc(NC(=O)C2CCCCC2)n1 [CBK058720] | 98.1% | –
COc1ccc(NC(=O)CCC(=O)O)c(OC)c1 [CBK265451] | 104% | –
Nc1nonc1C(=O)NCCNc1ccc([N+](=O)[O-])cc1 [CBK262577] | 104% | –
Cc1nnc(CS(=O)(=O)Cc2csc(C(C)(C)C)n2)n1C1CC1 [CBK305489] | 109% | –
Cc1ccccc1OCCn1c(CCCO)nc2ccccc21 [CBK266182] | 115% | –

SMILES | viability at 28.5 h, 10 µM (% viability) | viability at 28.5 h, 10 µM
O=C(CCCN1C(=O)c2ccccc2C1=O)Oc1ccc(-c2ccccc2)cc1 [CBK267144] | 98.1% | –
c1ccc(COc2ccc(N3CCNCC3)cc2)cc1 [CBK012776C] | 83.5% | –
CNC(=O)Oc1ccc(C2(C)SCCS2)cc1 [CBK023078] | – | 98.9%
COc1ccc(N2CCN(c3cc(-c4cccc5ccccc45)ncn3)CC2)cc1OC [CBK091022] | 43.4% | –
C=CCn1c2ccccc2c2nnc(SC(CC)C(=O)N3c4ccccc4Sc4ccccc43)nc21 (stereo not drawn) [CBK263040] | 90.7% | –
COC(=O)c1sccc1NC(=O)COc1ccc([N+](=O)[O-])cc1Cl [CBK066828] | 109% | –
COc1ccc(NC(=O)CC2SC(NC3CCCCC3)=NC2=O)c(OC)c1 (stereo not drawn) [CBK059502] | 93.7% | –
CC(C)[C@@H](Cn1nc(-c2cccs2)ccc1=O)NC(=O)C1CC1 [CBK284297] | 87.4% | –
N#Cc1ccsc1NC(=O)CN1CCC(CNc2ccccn2)C1 (stereo not drawn) [CBK306117] | 105% | –
Cc1nc(C)n(CC2CCCN(Cc3cc(=O)n4ccccc4n3)C2)n1 (stereo not drawn) [CBK304135] | 88.5% | –
N#Cc1c(NC(=O)c2cc(S(=O)(=O)N3CCCCC3)c(Cl)cc2Cl)sc2c1CCCC2 [CBK264579] | 104% | –
C#CCNC(=O)[C@@H]1Cc2cn(Cc3cc(C)on3)c3cccc(c23)[C@H](CC(C)C)N1 [CBK289426] | 90.4% | –
COc1ccc(-c2cnc(N)c(N3CCC[C@@H]3CO)n2)c(OC)c1OC [CBK063505] | 98.5% | –
COC(=O)c1c(NC(=S)NCc2cccnc2)sc(C)c1C [CBK267029] | 89.2% | –
CSCC[C@H](NC(=O)Nc1ccc(N2CCC(C)CC2)cc1)C(=O)O [CBK286743] | 86% | –
CCC(C)(C)c1ccc(S(=O)(=O)Nc2ccc3ncsc3c2)cc1 [CBK043490] | 113% | –
CC(=O)[C@H]1C[C@@H](CC(=O)Nc2ccc(Cl)nc2)C1(C)C [CBK091338] | 97.7% | –
Clc1cccc(Nc2cncc(-c3cccc4ccccc34)n2)c1 [CBK065764] | 93.4% | –
O=c1cc(CN2CCOCC2)oc2c(OCc3nnnn3C3CC3)cccc12 [CBK007813] | 101% | –
COc1ccc(C(=O)OC(C)(C)C)c(-c2cncc(NCc3ccco3)n2)c1 [CBK037751] | 87.8% | –
Cn1c(SCCCN2C(=O)c3cccc4cccc(c34)C2=O)nnc1-c1ccncc1 [CBK268951] | 93.1% | –
COc1ccccc1N1CCN(C(=O)CCCC(=O)O)CC1 [CBK286904] | 80.8% | –
